Data taken from ChEMBL document CHEMBL3259645, “Design and synthesis of spirocyclic compounds as HCV replication inhibitors by targeting viral NS4B protein” (Bioorg Med Chem Lett, 2014).
In brackets after ≈: the same amount, converted by molar mass.

How the values were obtained:
Hepatitis C virus [1] = test: Antiviral activity against Hepatitis C virus genotype 1a infected in human HuH7 cells assessed as inhibition of replicon replication after 48 hrs by luciferase reporter gene assay; type: functional, cell-based, Hepacivirus hominis; settings: subtype 1a, Huh-7, 48 h
Hepatitis C virus [2] = test: Antiviral activity against Hepatitis C virus genotype 1b infected in human HuH7 cells assessed as inhibition of replicon replication after 48 hrs by luciferase reporter gene assay; type: functional, cell-based, Hepacivirus hominis; settings: Huh-7, 48 h
[3] = Cytotoxicity against human HuH7 cells infected with Hepatitis C virus genotype 1b; type: cell-based, Huh-7
Hepatitis C virus [4] = test: Ratio of EC50 for Hepatitis C virus genotype 1b harboring NS4B H94N mutant infected in human HuH7 cells to EC50 for wild type Hepatitis C virus genotype 1b infected in human HuH7 cells; type: functional, Hepacivirus hominis, Huh-7
[5] = Half life in human hepatocytes; type: ADME, cell-based, Hepatocyte
[6] = Displacement of biotinylated anti-His antibody from C-terminal 6X His-tagged Hepatitis C virus genotype 1b NS4B expressed in baculovirus-infected Sf9 cells by microplate assay; design: species or system Hepatitis C virus subtype 1b
[7] = Cmax in rat at 5 mg/kg, po; type: ADME, organism-based; design: dose 5 mg/kg, route oral; settings: in vivo
[8] = Kinetic solubility of the compound at pH 7.4; type: physicochemical; settings: buffer, read-out: Kinetic_solubility
Hepatitis C virus [9] = test: Antiviral activity against Hepatitis C virus genotype 2a; type: functional, Hepacivirus hominis
[10] = Oral bioavailability in rat at 5 mg/kg; type: ADME, organism-based; settings: in vivo
Hepatitis C virus [11] = test: Ratio of EC50 for Hepatitis C virus genotype 1b harboring NS4B V105M mutant infected in human HuH7 cells to EC50 for wild type Hepatitis C virus genotype 1b infected in human HuH7 cells; type: functional, Hepacivirus hominis, Huh-7
Hepatitis C virus [12] = test: Antiviral activity against Hepatitis C virus genotype 1b harboring NS4B H94N mutant infected in human HuH7 cells assessed as inhibition of replicon replication after 48 hrs by luciferase reporter gene assay; type: functional, cell-based, Hepacivirus hominis; settings: Huh-7, 48 h
[13] = Clearance in rat at 1 mg/kg, iv; type: ADME, organism-based; design: dose 1 mg/kg, route intravenous; settings: in vivo
[14] = Half life in rat hepatocytes; type: ADME, cell-based, Hepatocyte
[15] = Volume of distribution at steady state in rat at 1 mg/kg, iv and 5 mg/kg, po; type: ADME, organism-based; settings: in vivo, read-out: Vdss
Hepatitis C virus [16] = test: Antiviral activity against Hepatitis C virus genotype 1b harboring NS4B V105M mutant infected in human HuH7 cells assessed as inhibition of replicon replication after 48 hrs by luciferase reporter gene assay; type: functional, cell-based, Hepacivirus hominis; settings: Huh-7, 48 h
[17] = AUC (0 to 24 hrs) in rat at 5 mg/kg, po; type: ADME, organism-based; design: time < 24 hr, dose 5 mg/kg, route oral; settings: plasma

SMILES | EC50 (Hepatitis C virus [1]) [nM] | EC50 (Hepatitis C virus [2]) [nM] | CC50 [3] [nM] | also measured
CN1C[C@]2(CCN(C(=O)c3nn4c(C(F)(F)F)cc(C5CC5)cc4c3Cl)C[C@@H]2O)OC1=O | 3560 | 3990 | > 50000 | 
O=C(c1nn2c(C(F)(F)F)cc(C3CC3)cc2c1Cl)N1CCC2(CC1)OCCCO2 | 33.8 | 6.1 | > 50000 | 
O=C(c1nn2c(C(F)(F)F)cc(C3CC3)cc2c1Cl)N1CCC2(CC1)OCC1(COC1)CO2 | 14.4 | 3.2 | > 50000 | 
O=C1CC2(CCN(C(=O)c3nn4c(C(F)(F)F)cc(C5CC5)cc4c3Cl)CC2)CN1 | 441 | 1580 | > 50000 | 
CN1CC2(CCN(C(=O)c3nn4c(C(F)(F)F)cc(C5CC5)cc4c3Cl)CC2)OC1=O | 2 | 3.4 | > 50000 | Ratio EC50 (Hepatitis C virus [4]): 12.5; half-life [5]: 1.1 h; IC50 [6]: 23.4 nM; Cmax [7]: 269 ng/mL; solubility kinetic [8]: 267 µg/mL (≈ 584 µM); EC50 (Hepatitis C virus [9]): 6840 nM; bioavailability [10]: 72%; Ratio EC50 (Hepatitis C virus [11]): 6; EC50 (Hepatitis C virus [12]): 42.7 nM; clearance [13]: 56.5 mL/min/kg; half-life [14]: 1.33 h; Vd [15]: 2.1 L/kg; EC50 (Hepatitis C virus [16]): 20.4 nM; AUC(0-t) at 24 h [17]: 1060 ng·h/mL
O=C1OC2(CCN(C(=O)c3nn4c(C(F)(F)F)cc(C5CC5)cc4c3Cl)CC2)CN1CC1CC1 | 18.1 | 23.4 | > 50000 | 
O=C1NCC2(CCN(C(=O)c3nn4c(C(F)(F)F)cc(C5CC5)cc4c3Cl)CC2)O1 | 166 | 55.4 | > 50000 | 
O=C(c1nn2c(C(F)(F)F)cc(C3CC3)cc2c1Cl)N1CCC2(OCC3(CC3)CO2)C(=O)C1 | 5.1 | 3.8 | > 50000 | 
O=C(c1nc2c(C(F)(F)F)cc(Br)cn2c1Cl)N1CCC(N2CCOC2=O)CC1 | 31.4 | 45.5 |  | 
O=C(c1nn2c(C(F)(F)F)cc(C3CC3)cc2c1Cl)N1CCC2(OCC3(CC3)CO2)[C@@H](O)C1 | 32.5 | 8.2 | > 50000 | 
O=C(c1nn2c(C(F)(F)F)cc(C3CC3)cc2c1Cl)N1CCC2(CC1)OCC1(CCC1)CO2 | 5.1 | 7.6 | > 50000 | 
CC1(C)COC2(CCN(C(=O)c3nn4c(C(F)(F)F)cc(C5CC5)cc4c3Cl)CC2)OC1 | 23.8 | 9.8 | > 25000 | 
CC1COC2(CCN(C(=O)c3nn4c(C(F)(F)F)cc(C5CC5)cc4c3Cl)CC2)OC1 | 7.4 | 1.2 | > 50000 | 
CN1CC2(CCN(C(=O)c3nn4c(C(F)(F)F)cc(C5CC5)cc4c3Cl)CC2)CC1=O | 184 | 69.2 | > 50000 | 
O=C1COC2(CCN(C(=O)c3nn4c(C(F)(F)F)cc(C5CC5)cc4c3Cl)CC2)OC1 | 18 | 19.1 | > 50000 | 
CN1C[C@]2(CCN(C(=O)c3nn4c(C(F)(F)F)cc(C5CC5)cc4c3Cl)C[C@H]2O)OC1=O | 16.7 | 7.2 | > 50000 | 
CN1C[C@@]2(CCN(C(=O)c3nn4c(C(F)(F)F)cc(C5CC5)cc4c3Cl)C[C@H]2O)OC1=O | 14.5 | 7 | > 50000 | 
O=C(c1nn2c(C(F)(F)F)cc(C3CC3)cc2c1Cl)N1CCC2(CC1)OCCO2 | 299 | 161 | > 50000 | 
O=C(c1nn2c(C(F)(F)F)cc(C3CC3)cc2c1Cl)N1CCC2(CC1)OCC1(CO2)CC(O)C1 | 2.2 | 14.2 | > 50000 | 
O=C1OC2(CCN(C(=O)c3nn4c(C(F)(F)F)cc(C5CC5)cc4c3Cl)CC2)CN1Cc1ccccc1 | 427 | 457 | > 50000 | 
O=C(c1nn2c(C(F)(F)F)cc(C3CC3)cc2c1Cl)N1CCC2(OCC3(CC3)CO2)C(O)C1 (stereo not given) | 4.3 | 2.2 | > 50000 | 
CCN1CC2(CCN(C(=O)c3nn4c(C(F)(F)F)cc(C5CC5)cc4c3Cl)CC2)OC1=O | 20.6 | 5.9 | > 50000 | 
O=C(c1nn2c(C(F)(F)F)cc(C3CC3)cc2c1Cl)N1CCC2(CC1)OCC(O)CO2 | 19.5 | 13.8 | > 50000 | 
O=C(c1nn2c(C(F)(F)F)cc(C3CC3)cc2c1Cl)N1CCC2(OCC3(CC3)CO2)[C@H](O)C1 | 1.5 | 1.2 | > 50000 | Ratio EC50 (Hepatitis C virus [4]): 29.9; half-life [5]: 0.833 h; IC50 [6]: 10.2 nM; Cmax [7]: 1130 ng/mL; solubility kinetic [8]: 323 µg/mL (≈ 665 µM); EC50 (Hepatitis C virus [9]): 11300 nM; bioavailability [10]: > 100%; Ratio EC50 (Hepatitis C virus [11]): 143; EC50 (Hepatitis C virus [12]): 35.9 nM; clearance [13]: 35.7 mL/min/kg; half-life [14]: 0.467 h; Vd [15]: 0.8 L/kg; EC50 (Hepatitis C virus [16]): 172 nM; AUC(0-t) at 24 h [17]: 2790 ng·h/mL
O=C(c1nn2c(C(F)(F)F)cc(C3CC3)cc2c1Cl)N1CCC2(CC1)OCC(c1ccccc1)CO2 | 42.2 | 209 | > 50000 | 
O=C(c1nn2c(C(F)(F)F)cc(C3CC3)cc2c1Cl)N1CCCC2(C1)OCCCO2 | > 500 | > 500 | > 50000 | 
CN1C[C@@]2(CCN(C(=O)c3nn4c(C(F)(F)F)cc(C5CC5)cc4c3Cl)C[C@@H]2O)OC1=O | 10.9 | 6.1 | > 50000 | Ratio EC50 (Hepatitis C virus [4]): 27.3; half-life [5]: 2.05 h; IC50 [6]: 30.4 nM; Cmax [7]: 344 ng/mL; solubility kinetic [8]: 310 µg/mL (≈ 656 µM); EC50 (Hepatitis C virus [9]): 38000 nM; bioavailability [10]: 49%; Ratio EC50 (Hepatitis C virus [11]): 185; EC50 (Hepatitis C virus [12]): 175 nM; clearance [13]: 25.7 mL/min/kg; half-life [14]: 2.2 h; Vd [15]: 2 L/kg; EC50 (Hepatitis C virus [16]): 1130 nM; AUC(0-t) at 24 h [17]: 1530 ng·h/mL
O=C(c1nn2c(C(F)(F)F)cc(C3CC3)cc2c1Cl)N1CCC2(CC1)OCC1(CC1)CO2 | 9 | 4.1 | > 50000 | Ratio EC50 (Hepatitis C virus [4]): 5.9; half-life [5]: 0.5 h; IC50 [6]: 32 nM; Cmax [7]: 254 ng/mL; solubility kinetic [8]: 105 µg/mL (≈ 223 µM); EC50 (Hepatitis C virus [9]): 6840 nM; bioavailability [10]: 29%; Ratio EC50 (Hepatitis C virus [11]): 16.5; EC50 (Hepatitis C virus [12]): 24.3 nM; clearance [13]: 37.8 mL/min/kg; half-life [14]: < 0.25 h; Vd [15]: 4.5 L/kg; EC50 (Hepatitis C virus [16]): 67.6 nM; AUC(0-t) at 24 h [17]: 693 ng·h/mL
O=C(c1nn2c(C(F)(F)F)cc(C3CC3)cc2c1Cl)N1CCC2(CC1)OCCCCO2 | 46.3 | 8 | > 25000 | 
O=C1OC2(CCN(C(=O)c3nn4c(C(F)(F)F)cc(C5CC5)cc4c3Cl)CC2)CN1CCO | 23.2 | 78.5 | > 50000 | 
